In patent US8536342B2, “Process for producing thiabenzoazulene-propionic acid derivative” (Nippon Zoki Pharmaceutical Co., Ltd., priority 2009, dated 2013):

Key:
intracerebral receptor = biological target: T1, intracerebral receptor (Mus musculus, UniProt P70174); assay: intracerebral receptor binding test by oral administration to mice; type: in vivo
T1 construct: from tissue; host or cells: mouse brain

histamine H1 receptor = histamine H1 receptor (Homo sapiens, UniProt P35367); assay: antagonistic action to histamine H1 receptor
Chain of histamine H1 receptor (P35367 whole entry, species assumed): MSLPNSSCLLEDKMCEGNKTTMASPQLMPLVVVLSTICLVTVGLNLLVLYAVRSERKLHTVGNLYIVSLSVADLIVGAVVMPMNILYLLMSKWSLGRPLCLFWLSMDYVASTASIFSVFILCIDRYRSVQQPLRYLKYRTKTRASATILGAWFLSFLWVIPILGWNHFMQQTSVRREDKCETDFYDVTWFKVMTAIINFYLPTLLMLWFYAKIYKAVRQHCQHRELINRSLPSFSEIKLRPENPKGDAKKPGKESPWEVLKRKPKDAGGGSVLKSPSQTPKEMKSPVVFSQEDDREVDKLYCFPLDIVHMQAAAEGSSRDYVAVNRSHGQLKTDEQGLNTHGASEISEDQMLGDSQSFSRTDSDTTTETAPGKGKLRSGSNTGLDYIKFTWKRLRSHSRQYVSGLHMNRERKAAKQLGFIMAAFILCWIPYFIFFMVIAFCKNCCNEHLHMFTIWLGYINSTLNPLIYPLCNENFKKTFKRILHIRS

T1 sequence (P70174 whole entry): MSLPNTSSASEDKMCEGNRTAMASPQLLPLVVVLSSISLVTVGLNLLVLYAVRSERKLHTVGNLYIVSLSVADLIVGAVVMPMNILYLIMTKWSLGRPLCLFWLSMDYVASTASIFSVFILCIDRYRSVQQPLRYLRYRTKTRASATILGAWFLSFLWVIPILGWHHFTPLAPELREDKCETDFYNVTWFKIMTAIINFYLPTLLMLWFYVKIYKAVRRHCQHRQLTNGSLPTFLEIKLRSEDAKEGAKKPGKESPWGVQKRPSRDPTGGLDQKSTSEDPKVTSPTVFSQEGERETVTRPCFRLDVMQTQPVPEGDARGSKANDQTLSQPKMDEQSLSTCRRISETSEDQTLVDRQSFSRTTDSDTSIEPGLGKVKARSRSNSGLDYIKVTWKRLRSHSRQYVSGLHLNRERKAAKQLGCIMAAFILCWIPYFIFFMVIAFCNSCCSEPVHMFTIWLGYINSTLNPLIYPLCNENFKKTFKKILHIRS

SMILES | melting point | other results
O=C(O)C=Cc1cc2c(s1)CCc1ccccc1C2=C1CCNCC1 [Compound 4, 3-(4-piperidin-4-ylidene-9,10-dihydro-4H-1-thiabenzo[f]azulen-2-yl)acrylic acid] | 269 to 272 °C (dec.) | 
CC(C)(C)OC(=O)N1CCC(=C2c3ccccc3CCc3sc(C=CC(=O)O)cc32)CC1 [Compound 6, 3-[4-(1-tert-butoxycarbonylpiperidin-4-ylidene)-9,10-dihydro-4H-1-thiabenzo[f]azulen-2-yl]acrylic acid] | 186 °C (dec.) | 
O=C(O)CCc1cc2c(s1)C=Cc1ccccc1C2=C1CCNCC1 [Compound 5, 3-(4-piperidin-4-ylidene-4H-1-thiabenzo-[f]azulen-2-yl)propionic acid] | 254 °C (dec.) | intracerebral transmigration (intracerebral receptor): low intracerebral transmigration; antagonistic action to histamine H1 receptor (histamine H1 receptor): excellent antagonistic action; antihistaminic action (histamine H1 receptor): excellent antihistaminic action
CC(C)(C)OC(=O)N1CCC(=C2c3ccccc3C=Cc3sc(CCC(=O)O)cc32)CC1 [Compound 7, 3-[4-(1-tert-butoxycarbonylpiperidin-4-ylidene)-4H-1-thiabenzo[f]azulen-2-yl]propionic acid] | 172 °C (dec.) | 

More lines, main results first:

melting point | SMILES | other results
141 to 142 °C | CN1CCC(=C2c3ccccc3CCc3sc(Br)cc32)CC1 [Compound 11, 4-(2-bromo-9,10-dihydro-1-thiabenzo[f]-azulen-4-ylidene)-1-methylpiperidine] | 
110 to 113 °C | CCOC(=O)N1CCC(=C2c3ccccc3CCc3sccc32)CC1 [Compound 1, ethyl 4-(9,10-dihydro-1-thiabenzo[f]-azulen-4-ylidene)piperidine-1-carboxylate] | 
228 °C (dec.) | CCOC(=O)N1CCC(=C2c3ccccc3CCc3sc(C=CC(=O)O)cc32)CC1 [Compound 3, 3-[4-(1-ethoxycarbonylpiperidin-4-ylidene)-9,10-dihydro-4H-1-thiabenzo[f]azulen-2-yl]acrylic acid] | 
90 to 93 °C | CCOC(=O)C=Cc1cc2c(s1)CCc1ccccc1C2=C1CCN(C(=O)OCC)CC1 [Compound 8, ethyl 4-[2-(2-ethoxycarbonylvinyl)-9,10-dihydro-1-thiabenzo[f]azulen-4-ylidene]piperidine-1-carboxylate] | 
146 to 149 °C | CCOC(=O)N1CCC(=C2c3ccccc3CCc3sc(C=O)cc32)CC1 [Compound 2, ethyl 4-(2-formyl-9,10-dihydro-1-thia-benzo[f]azulen-4-ylidene)piperidine-1-carboxylate] | 
